Experimental data reported in ChEMBL document CHEMBL2146454, “2,6-Naphthyridines as potent and selective inhibitors of the novel protein kinase C isozymes” (Bioorg Med Chem Lett, 2011).

Columns and labels:
[1] = molecular target: Protein kinase C beta type (Homo sapiens, UniProt P05771); assay: Inhibition of recombinant human PKCbeta1 assessed as [33P]-ATP incorporation into tridecapeptide substrate after 60 mins by scintillation proximity assay
[2] = molecular target: Protein kinase C alpha type (Homo sapiens, UniProt P17252); assay: Inhibition of recombinant human PKCalpha assessed as [33P]-ATP incorporation into tridecapeptide substrate after 60 mins by scintillation proximity assay
[3] = molecular target: Protein kinase C eta type (Homo sapiens, UniProt P24723); assay: Inhibition of recombinant human PKCeta assessed as [33P]-ATP incorporation into tridecapeptide substrate after 60 mins by scintillation proximity assay
[4] = molecular target: T1, Protein kinase C epsilon type (Homo sapiens, UniProt Q02156); assay: Inhibition of recombinant human PKCepsilon assessed as [33P]-ATP incorporation into tridecapeptide substrate after 60 mins by scintillation proximity assay
T1 sequence (Q02156 whole entry): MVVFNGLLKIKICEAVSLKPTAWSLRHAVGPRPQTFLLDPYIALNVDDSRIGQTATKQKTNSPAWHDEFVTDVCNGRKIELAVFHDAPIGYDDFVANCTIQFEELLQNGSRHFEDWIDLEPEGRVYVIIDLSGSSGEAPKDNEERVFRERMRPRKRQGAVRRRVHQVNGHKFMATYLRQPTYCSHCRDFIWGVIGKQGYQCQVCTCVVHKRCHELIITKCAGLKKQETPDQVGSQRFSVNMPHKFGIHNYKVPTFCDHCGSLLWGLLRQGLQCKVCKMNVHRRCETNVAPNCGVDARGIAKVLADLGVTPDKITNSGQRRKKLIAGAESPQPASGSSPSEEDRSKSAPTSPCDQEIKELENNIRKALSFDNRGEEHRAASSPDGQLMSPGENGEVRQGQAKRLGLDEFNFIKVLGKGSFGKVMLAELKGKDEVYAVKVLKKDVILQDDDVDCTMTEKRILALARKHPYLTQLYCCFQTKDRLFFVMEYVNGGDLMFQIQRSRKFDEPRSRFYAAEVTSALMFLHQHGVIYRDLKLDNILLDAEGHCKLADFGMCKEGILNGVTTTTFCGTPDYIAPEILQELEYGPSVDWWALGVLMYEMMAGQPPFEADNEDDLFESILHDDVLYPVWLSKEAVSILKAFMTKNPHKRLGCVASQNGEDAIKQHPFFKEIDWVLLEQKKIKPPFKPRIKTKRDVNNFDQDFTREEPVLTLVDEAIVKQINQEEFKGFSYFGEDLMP

[5] = molecular target: Protein kinase C theta type (Homo sapiens, UniProt Q04759); assay: Inhibition of recombinant human PKCtheta assessed as [33P]-ATP incorporation into tridecapeptide substrate after 60 mins by scintillation proximity assay
[6] = molecular target: Protein kinase C delta type (Homo sapiens, UniProt Q05655); assay: Inhibition of recombinant human PKCdelta assessed as [33P]-ATP incorporation into tridecapeptide substrate after 60 mins by scintillation proximity assay
[7] = Inhibition of antiCD3 and antiCD28 antibody-stimulated rat blood T lymphocyte proliferation incubated 1 hr before antibody challenge measured after 52 hrs by radioactive [3H]-thymidine incorporation assay; format: tissue-based; conditions: T-cell
[8] = AUC (infinity) in Lewis rat at 10 mg/kg, po; format: ADME, organism-based; design: time infinity, dose 10 mg/kg, route oral; conditions: plasma
[9] = Volume of distribution at steady state in Lewis rat at 5 mg/kg, iv; format: ADME, organism-based; design: dose 5 mg/kg, route intravenous; conditions: in vivo, read-out: Vdss
[10] = Oral bioavailability in Lewis rat at 10 mg/kg; format: ADME, organism-based; conditions: in vivo
[11] = Intrinsic aqueous solubility of the compound; format: physicochemical; conditions: read-out: Intrinsic_solubility
[12] = Plasma protein binding in human by rapid equilibrium dialysis method; format: ADME, cell-free; conditions: read-out: PPB (converted)
[13] = Lipophilicity, log P of the compound; format: physicochemical; conditions: octanol/water
[14] = Clearance in Lewis rat at 5 mg/kg, iv; format: ADME, organism-based; design: dose 5 mg/kg, route intravenous; conditions: in vivo
[15] = Elimination half life in Lewis rat at 5 mg/kg, iv; format: ADME, organism-based; design: dose 5 mg/kg, route intravenous; conditions: in vivo, read-out: beta t1/2 (converted)
[16] = Octanol-water distribution coefficient, log D of the compound at pH 6.8; format: physicochemical
Mus musculus [17] = species on record: Mus musculus; assay: animal or person; format: functional; conditions: BALB/c, route oral
Mus musculus [18] = species on record: Mus musculus; assay: animal or person; format: functional; conditions: BALB/c, route oral; remark: listed apart in the source
[19] = Plasma protein binding in rat by rapid equilibrium dialysis method; format: ADME, cell-free; conditions: read-out: PPB (converted)
[20] = Dissociation constant, pKa of the compound; format: physicochemical
[21] = AUC (infinity) in Lewis rat at 5 mg/kg, iv; format: ADME, organism-based; design: dose 5 mg/kg, route intravenous, time infinity; conditions: plasma
[22] = Cmax in Lewis rat at 10 mg/kg, po; format: ADME, organism-based; design: dose 10 mg/kg, route oral; conditions: in vivo
[23] = Tmax in Lewis rat at 10 mg/kg, po; format: ADME, organism-based; design: dose 10 mg/kg, route oral; conditions: in vivo

Sequence of Protein kinase C beta type (P05771 whole entry): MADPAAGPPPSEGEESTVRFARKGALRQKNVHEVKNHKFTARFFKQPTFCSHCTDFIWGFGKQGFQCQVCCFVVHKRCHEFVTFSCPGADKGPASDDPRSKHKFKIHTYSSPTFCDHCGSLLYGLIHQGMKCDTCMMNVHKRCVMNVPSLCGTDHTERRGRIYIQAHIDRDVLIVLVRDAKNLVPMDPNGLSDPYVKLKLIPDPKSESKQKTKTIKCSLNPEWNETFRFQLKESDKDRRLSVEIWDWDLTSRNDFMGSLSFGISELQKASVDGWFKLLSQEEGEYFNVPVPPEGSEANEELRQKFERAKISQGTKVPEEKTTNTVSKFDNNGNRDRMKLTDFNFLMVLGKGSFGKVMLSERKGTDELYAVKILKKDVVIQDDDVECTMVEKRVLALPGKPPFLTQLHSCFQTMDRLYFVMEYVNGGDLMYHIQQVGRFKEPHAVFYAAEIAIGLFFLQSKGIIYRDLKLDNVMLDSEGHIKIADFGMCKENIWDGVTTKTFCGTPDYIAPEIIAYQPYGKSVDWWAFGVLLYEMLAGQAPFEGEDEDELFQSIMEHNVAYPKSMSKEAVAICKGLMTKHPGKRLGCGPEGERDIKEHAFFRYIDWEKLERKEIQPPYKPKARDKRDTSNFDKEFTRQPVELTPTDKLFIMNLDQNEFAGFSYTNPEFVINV
Sequence of Protein kinase C eta type (P24723 whole entry): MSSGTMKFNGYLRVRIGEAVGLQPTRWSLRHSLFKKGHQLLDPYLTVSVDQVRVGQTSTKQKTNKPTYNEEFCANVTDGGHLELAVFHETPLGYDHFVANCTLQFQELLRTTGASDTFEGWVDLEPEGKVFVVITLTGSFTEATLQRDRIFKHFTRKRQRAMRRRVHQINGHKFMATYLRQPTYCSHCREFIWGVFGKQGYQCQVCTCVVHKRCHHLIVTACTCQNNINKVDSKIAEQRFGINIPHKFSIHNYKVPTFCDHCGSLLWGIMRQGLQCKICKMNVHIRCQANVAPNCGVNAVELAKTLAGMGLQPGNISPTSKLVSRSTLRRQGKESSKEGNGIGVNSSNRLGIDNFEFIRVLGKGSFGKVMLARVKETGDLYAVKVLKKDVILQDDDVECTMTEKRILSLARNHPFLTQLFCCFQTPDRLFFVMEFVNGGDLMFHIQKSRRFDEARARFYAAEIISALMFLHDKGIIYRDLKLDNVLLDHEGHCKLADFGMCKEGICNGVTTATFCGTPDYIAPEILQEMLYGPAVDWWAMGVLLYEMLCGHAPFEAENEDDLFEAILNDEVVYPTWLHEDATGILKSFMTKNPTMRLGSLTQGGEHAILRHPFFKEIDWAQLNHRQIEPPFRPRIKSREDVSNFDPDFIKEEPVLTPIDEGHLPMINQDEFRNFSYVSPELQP
Sequence of Protein kinase C delta type (Q05655 whole entry): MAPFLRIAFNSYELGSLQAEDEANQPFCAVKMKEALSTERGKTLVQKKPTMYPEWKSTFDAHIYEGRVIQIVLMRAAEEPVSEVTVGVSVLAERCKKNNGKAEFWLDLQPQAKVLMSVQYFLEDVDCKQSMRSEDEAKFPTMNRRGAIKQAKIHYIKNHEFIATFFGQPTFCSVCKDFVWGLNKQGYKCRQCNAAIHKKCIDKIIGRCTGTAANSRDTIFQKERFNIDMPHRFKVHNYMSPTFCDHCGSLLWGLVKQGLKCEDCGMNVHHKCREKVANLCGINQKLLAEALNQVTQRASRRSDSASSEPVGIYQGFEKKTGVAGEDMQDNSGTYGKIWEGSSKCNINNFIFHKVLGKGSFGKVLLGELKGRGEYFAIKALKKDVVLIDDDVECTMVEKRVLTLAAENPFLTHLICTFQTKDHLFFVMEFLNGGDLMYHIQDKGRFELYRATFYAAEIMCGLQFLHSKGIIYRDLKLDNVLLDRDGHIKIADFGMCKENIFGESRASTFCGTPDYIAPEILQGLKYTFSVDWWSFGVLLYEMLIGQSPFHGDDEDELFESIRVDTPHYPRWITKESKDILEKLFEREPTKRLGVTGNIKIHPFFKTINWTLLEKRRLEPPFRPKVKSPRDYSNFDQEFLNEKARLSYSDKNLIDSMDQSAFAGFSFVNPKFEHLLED
Sequence of Protein kinase C theta type (Q04759 whole entry): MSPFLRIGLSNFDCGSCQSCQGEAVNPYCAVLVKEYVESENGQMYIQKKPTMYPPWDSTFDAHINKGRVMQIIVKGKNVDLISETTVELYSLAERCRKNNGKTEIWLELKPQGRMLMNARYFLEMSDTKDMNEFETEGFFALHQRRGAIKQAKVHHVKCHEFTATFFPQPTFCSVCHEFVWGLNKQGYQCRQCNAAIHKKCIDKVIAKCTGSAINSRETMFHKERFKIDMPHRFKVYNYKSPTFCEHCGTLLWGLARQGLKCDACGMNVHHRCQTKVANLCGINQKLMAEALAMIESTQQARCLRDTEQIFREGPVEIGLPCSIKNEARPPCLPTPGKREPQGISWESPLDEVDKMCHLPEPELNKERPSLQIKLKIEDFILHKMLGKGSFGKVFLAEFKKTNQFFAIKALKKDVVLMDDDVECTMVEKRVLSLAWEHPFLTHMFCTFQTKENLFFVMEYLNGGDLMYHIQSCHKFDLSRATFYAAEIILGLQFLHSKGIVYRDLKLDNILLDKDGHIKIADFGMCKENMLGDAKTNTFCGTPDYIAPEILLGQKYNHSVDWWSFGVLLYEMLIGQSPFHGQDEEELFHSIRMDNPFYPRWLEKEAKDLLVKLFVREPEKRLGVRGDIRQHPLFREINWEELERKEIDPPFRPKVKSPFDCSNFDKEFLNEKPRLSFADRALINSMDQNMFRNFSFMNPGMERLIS

SMILES | IC50 [1] [nM] | IC50 [2] [nM] | IC50 [3] [nM] | IC50 [4] [nM] | IC50 [5] [nM] | IC50 [6] [nM] | other results
NCCNc1nc(-c2ccncc2)cc2cnccc12 | 859 |  |  |  |  |  | 
c1cc(-c2cc3cnccc3c(N3CCNCC3)n2)ccn1 | 823 | > 1000 | 6 | 8 | 109 |  | 
NCCNc1nc(-c2ccncc2)cc2ccccc12 | > 1000 | > 1000 | 743 | 877 | > 1000 | > 1000 | 
NCCNc1nc(-c2ccncc2)cc2ncccc12 | > 1000 | > 1000 | 401 | 929 | > 1000 | > 1000 | 
NCCNc1nc(-c2ccncc2)cc2ccncc12 | > 1000 | > 1000 | > 1000 | > 1000 | > 1000 | > 1000 | 
NCCNc1cc(-c2ccncc2)cc2cnccc12 | > 1000 | > 1000 | 54 | 44 | 355 | 157 | IC50 [7]: 1040 nM
NCCNc1nc(-c2ccncc2)nc2cnccc12 | > 1000 | > 1000 | 27 | 38 | > 1000 | 102 | 
NCCOc1nc(-c2ccncc2)cc2cnccc12 | > 1000 | > 1000 | 82 | 120 | 948 | 703 | 
C[C@H](N)CNc1nc(-c2ccncc2)cc2cnccc12 | 378 | 829 | 2 | 5 | 55 | 8 | AUC(0-inf) [8]: 712 ng·h/mL; Vd [9]: 14 L/kg; bioavailability [10]: 20%; solubility [11]: > 400 µg/mL; fraction unbound [12]: 0.42; logP [13]: 2.2; clearance [14]: 49 mL/min/kg; half-life [15]: 8.1 h; logD [16]: -0.3; inhibition in vivo at 100 mg/kg (Mus musculus [17]): 70%; inhibition in vivo at 50 mg/kg (Mus musculus [18]): 37%; fraction unbound [19]: 0.37; pKa [20]: 9; AUC(0-inf) [21]: 1770 ng·h/mL; IC50 [7]: 138 nM; Cmax [22]: 53 ng/mL; Tmax [23]: 2 h
NC(CNc1nc(-c2ccncc2)cc2cnccc12)Cc1ccccc1 (stereo not given) | > 1000 | 818 | 452 | 403 | > 1000 | 932 | 
CN(CCN)c1nc(-c2ccncc2)cc2cnccc12 | > 1000 | > 1000 | 34 | 24 | 350 | 371 | 
CNCCNc1nc(-c2ccncc2)cc2cnccc12 | > 1000 | > 1000 | 93 | 79 | 997 | 254 | 
c1cc(-c2cc3cnccc3c(N3CCCNCC3)n2)ccn1 | 661 | 433 | 4 | 7 | 77 | 63 | 
NC1CCCN(c2nc(-c3ccncc3)cc3cnccc23)C1 (stereo not given) | 865 | 771 | 13 | 8 | 132 | 214 | 
NCCCNc1nc(-c2ccncc2)cc2cnccc12 | 779 | 676 | 10 | 13 | 97 | 53 | 
OCCNc1nc(-c2ccncc2)cc2cnccc12 | > 1000 | > 1000 | 188 | 81 | 743 | 635 | 
O=C1CN(c2nc(-c3ccncc3)cc3cnccc23)CCN1 | > 1000 | > 1000 | 735 | 802 | > 1000 | > 1000 | 
CC(C)(N)CNc1nc(-c2cccnc2)cc2cnccc12 | > 1000 | > 1000 | > 1000 | > 1000 | > 1000 | > 1000 | 
CC(C)(N)CNc1nc(-c2ccnc(N)c2)cc2cnccc12 | > 1000 | 378 | 60 | 147 | 496 | 294 | 
CC(C)Nc1cc(-c2cc3cnccc3c(NCC(C)(C)N)n2)ccn1 | > 1000 | > 1000 | 862 | > 1000 | > 1000 | > 1000 | 
CC(C)(N)CNc1nc(-c2ccncc2F)cc2cnccc12 | 961 | > 1000 | 18 | 62 | 140 | 124 | 
CC(C)(N)CNc1nc(-c2ccncc2Cl)cc2cnccc12 | > 1000 | > 1000 | 15 | 47 | 93 | 221 | 
Cc1cnccc1-c1cc2cnccc2c(NCC(C)(C)N)n1 | > 1000 | > 1000 | 52 | 133 | 738 | 386 | 
